Holding throughout (format): cell-based
Assay [1] deals with DNA topoisomerase 2-alpha (Homo sapiens, UniProt P11388). In words: Inhibition of TOP2A in human HS53T cells assessed as reduction in cell viability at 1 to 500 ng/ml incubated for 72 hrs by SRB assay. A general note: Sulforhodamine B stains cellular protein and so reports cell mass.
The target in assay [2] is T1, Bromodomain-containing protein 4 (Homo sapiens, UniProt O60885). The experiment in a line: Inhibition of BRD4 in human HS53T cells assessed as reduction in cell viability at 4.9 to 2500 nM incubated for 72 hrs by SRB assay.
In assay [3] the target is T1, Bromodomain-containing protein 4. The experiment in a line: Inhibition of BRD4 in human ST88-14 cells assessed as reduction in cell viability at 4.9 to 2500 nM incubated for 72 hrs by SRB assay.
Assay [4] shares this target. Particulars: sts-26t; call rule not given here.

Sequence of DNA topoisomerase 2-alpha (P11388 whole entry): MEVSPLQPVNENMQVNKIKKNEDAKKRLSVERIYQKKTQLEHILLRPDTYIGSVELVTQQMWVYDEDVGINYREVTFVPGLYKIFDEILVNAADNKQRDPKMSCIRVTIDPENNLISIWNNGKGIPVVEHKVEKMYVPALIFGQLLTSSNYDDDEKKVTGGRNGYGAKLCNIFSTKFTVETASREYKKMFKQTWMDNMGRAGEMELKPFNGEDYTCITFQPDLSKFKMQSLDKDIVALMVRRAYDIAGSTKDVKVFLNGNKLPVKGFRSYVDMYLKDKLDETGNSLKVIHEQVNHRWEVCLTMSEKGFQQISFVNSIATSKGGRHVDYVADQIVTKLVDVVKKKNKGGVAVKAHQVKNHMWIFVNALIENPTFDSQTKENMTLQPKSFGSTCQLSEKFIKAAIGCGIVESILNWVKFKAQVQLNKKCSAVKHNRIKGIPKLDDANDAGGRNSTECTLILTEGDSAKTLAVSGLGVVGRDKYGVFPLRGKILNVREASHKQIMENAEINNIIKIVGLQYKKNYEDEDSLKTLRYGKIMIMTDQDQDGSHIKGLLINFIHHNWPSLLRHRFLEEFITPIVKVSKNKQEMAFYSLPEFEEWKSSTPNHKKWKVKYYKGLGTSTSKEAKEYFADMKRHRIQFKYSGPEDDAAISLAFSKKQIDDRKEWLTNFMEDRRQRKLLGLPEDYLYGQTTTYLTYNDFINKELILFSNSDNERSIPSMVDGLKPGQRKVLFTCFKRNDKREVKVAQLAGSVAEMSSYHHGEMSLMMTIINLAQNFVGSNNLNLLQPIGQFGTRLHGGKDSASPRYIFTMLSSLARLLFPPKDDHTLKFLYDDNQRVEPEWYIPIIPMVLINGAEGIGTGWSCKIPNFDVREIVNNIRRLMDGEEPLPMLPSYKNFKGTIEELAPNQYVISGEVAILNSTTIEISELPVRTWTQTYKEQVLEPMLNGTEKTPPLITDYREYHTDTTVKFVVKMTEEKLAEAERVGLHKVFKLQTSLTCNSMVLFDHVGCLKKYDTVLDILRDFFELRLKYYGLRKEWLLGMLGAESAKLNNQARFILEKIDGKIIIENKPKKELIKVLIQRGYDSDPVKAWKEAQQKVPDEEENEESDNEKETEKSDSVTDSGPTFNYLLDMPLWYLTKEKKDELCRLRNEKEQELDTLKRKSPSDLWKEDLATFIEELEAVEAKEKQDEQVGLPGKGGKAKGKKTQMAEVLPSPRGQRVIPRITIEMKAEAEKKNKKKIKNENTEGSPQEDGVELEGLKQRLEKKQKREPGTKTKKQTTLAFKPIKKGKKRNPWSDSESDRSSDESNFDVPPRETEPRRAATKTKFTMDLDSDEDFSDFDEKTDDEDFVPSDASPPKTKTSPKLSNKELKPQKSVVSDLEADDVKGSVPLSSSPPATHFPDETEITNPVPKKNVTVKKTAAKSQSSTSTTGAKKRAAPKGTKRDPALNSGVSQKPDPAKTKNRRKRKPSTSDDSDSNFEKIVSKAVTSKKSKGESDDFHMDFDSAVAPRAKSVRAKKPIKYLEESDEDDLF

Consider `COc1cccc2c1C(=O)c1c(O)c3c(c(O)c1C2=O)C[C@@](O)(C(=O)CO)C[C@@H]3O[C@H]1C[C@H](N)[C@H](O)[C@H](C)O1` [DOXORUBICIN], for which, in assay [1], the IC50 result is recorded as “Not Active”.
As to `Cc1sc2c(c1C)C(c1ccc(Cl)cc1)=N[C@@H](CC(=O)OC(C)(C)C)c1nnc(C)n1-2`, the IC50 entry in assay [2], in assay [3] and in assay [4] was “Not Active” in each case.

The values above are taken from ChEMBL document CHEMBL5674873, “Expression and inhibition of BRD4, EZH2 and TOP2A in neurofibromas and malignant peripheral nerve sheath tumors” (PLoS One, 2017).
